{"source": "patent US6541194B2", "about": "“Method for the detection of the presence of chemical species known to inhibit a chemiluminescent reaction” (Neogen Corporation, priority 2000, dated 2003)", "target": "T1, luciferase (Photinus pyralis, UniProt P08659)", "T1 construct": "purchased Analytical Luminescent Laboratories (ALL), Sparks, Md. #2005", "T1 sequence (P08659 whole entry)": "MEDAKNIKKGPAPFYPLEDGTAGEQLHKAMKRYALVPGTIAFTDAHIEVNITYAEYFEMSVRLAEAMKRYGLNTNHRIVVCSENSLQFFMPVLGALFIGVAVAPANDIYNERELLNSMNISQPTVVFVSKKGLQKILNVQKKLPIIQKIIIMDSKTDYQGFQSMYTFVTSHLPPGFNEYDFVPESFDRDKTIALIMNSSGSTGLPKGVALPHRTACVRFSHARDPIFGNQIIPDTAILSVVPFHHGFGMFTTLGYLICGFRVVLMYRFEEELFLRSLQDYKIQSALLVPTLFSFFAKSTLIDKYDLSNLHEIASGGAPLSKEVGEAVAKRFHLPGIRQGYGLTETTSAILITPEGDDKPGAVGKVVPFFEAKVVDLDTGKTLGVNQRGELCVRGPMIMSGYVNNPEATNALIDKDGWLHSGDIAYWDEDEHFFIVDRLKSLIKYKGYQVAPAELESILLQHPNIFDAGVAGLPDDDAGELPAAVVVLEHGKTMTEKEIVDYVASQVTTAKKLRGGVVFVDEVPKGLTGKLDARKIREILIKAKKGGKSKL", "assay": "luciferin-luciferase chemiluminescent reaction with reactant mixture dried on reagent disc", "type": "biochemical", "description": "As discussed above, the inherent chemical and mechanical stability of the polymeric material is ideally suited for use as a medium on which to load the chemiluminescent reagents for the practice of the present invention. A number of commercial enterprises market luciferin-luciferase reagent kits for use in chemiluminescent reaction assays. One that the inventors have found to be particularly well suited for the practice of the present invention is the “Firelight®” luciferin-luciferase reagent kit provided by Analytical Luminescent Laboratories (ALL) of Sparks, Md. […] This provides for a greater intensity of luminescence, and faster reaction kinetics.\nIn the preparation of the reagent discs 48, the reactant concentrate is loaded, preferably drop-wise, onto the Merocel® CF50, obtained in pre-sterilized sheets. The coated sheets are then dried at ambient temperatures under a vacuum, and the reagent discs are cut from the sheets in an appropriate size and shape. Alternatively, discs may be cut first and then loaded with appropriate reagent solution. When loaded in such fashion with the reagent mixture, reagent discs, approximately 6 mm in diameter and approximately 1.5 mm in height, carry approximately 0.5 mg of the dried reactant mixture.\nIt is recognized in the prior art that trehalose will stabilize delicate materials while they are freeze-dried. […]"}
{"smiles": "OC[C@H]1O[C@H](O[C@H]2O[C@H](CO)[C@@H](O)[C@H](O)[C@H]2O)[C@H](O)[C@@H](O)[C@@H]1O", "note": "[trehalose, a-D-glucopyranosyl-a-D-glucopyranoside]", "values": [{"measurement": "observed luminescent intensities versus the same loading of reagents without the trehalose", "setting": "6 mm×1.5 mm reagent disc, total loading approximately 4 mg, FIG. 12", "value": "more than twice"}, {"measurement": "biochemical activity of the luciferase component of the reagent mixture", "setting": "trehalose added to loading solution at levels approaching its saturation solubility", "value": "up to a doubling, or more"}]}
